The values below come from article PMC3229523, “Identification of Lactoferricin B Intracellular Targets Using an Escherichia coli Proteome Chip” (PLoS ONE, 2011).

Ends that are not written are not given here. * marks the point of attachment. Biotin = O=C1N[C@H]2[C@H](CS[C@H]2CCCCC(=O)*)N1

In one experiment the test system is NrdB. Description: E. coli proteome chip assay, NrdB. Type of experiment: binding, E. coli K-12. To be noted: NrdB not in the top 153 proteins; 10 nM biotinylated LfcinB. The protocol:
To fabricate the proteome chips, E. coli K-12 proteins were expressed and purified in a high-throughput fashion. The procedure was modified from Chen et al.. Briefly, E. coli protein expression clones fused with a 6×-His tag, provided by Dr. Mori, were first incubated with glass beads (Biospec Products Inc.) in 2× LB medium containing 30 µg/ml chloramphenicol in 96 DeepWell™ plates (Nunc) at 37°C overnight. The overnight cultures were then diluted with 2× LB that contains 30 µg/ml chloramphenicol to the OD595 value of 0.1. When the cells grew to an OD595 value of 0.7–0.9, 500 µM of isopropyl β-D-thiogalactoside (IPTG) was added to induce protein expression at 37°C for ∼3.5 h. The cultures were then harvested by centrifugation at 3220 g for 5 min at 4°C, and the pellets were stored at −80°C before purification. […]
For image processing of chip assay results, Genepix Pro 6.0 was used to align the protein spot of each individual protein and then all aligned protein image signals were exported as a text file. The text file was analyzed by ProCAT [17], a signal normalization method. The relative ability of LfcinB to bind to each protein was estimated by the ratio of the fluorescence intensity of LfcinB to the fluorescence intensity of an anti-His antibody after the normalization. […]

The next experiment relates to HyaF. Description: Fluorescence polarization assay, HyaF. Type of experiment: binding, E. coli. From the text:
(§1) FP assays, investigations of the binding between two molecules in a homogeneous aqueous environment, were used to validate the identified 153 proteins. […] If a fluorophore only binds to a small molecule, such as peptide, the rotation of the complex is fast and the light emits in a different plane of polarization. Therefore, the degree of polarization is low. However, once a fluorophore binds to a large molecule, the bound complex is stimulated with polarized light. The light emits in the same polarized plane, and the complex is maintained in the same plane of polarization, causing an increase in the degree of polarization [22]–[24]. The amount of molecules binding to a fluorophore influences the degree of polarization. In this study, LfcinB was labeled with DyLight™ 549 as a reference value. Once the protein bound to LfcinB, like a fluorophore binds to a large molecule, a high degree of polarization is expected.
(§2) Before the assays, LfcinB was labeled with DyLight™ 549 and tested proteins were quantified with a Pierce® bicinchoninic acid (BCA™) protein assay (Thermo). To label the LfcinB, DyLight™ 549-NHS ester and LfcinB (68∶1, mole/mole) were mixed in PBS at room temperature for 1 h, a D-Salt™ polyacrylamide desalting column (Thermo) was used to remove excess dye and the labeling efficiency of the eluted solution was calculated. […]
Background: Fluorescence polarisation rises when a labelled molecule tumbles more slowly, as on binding a larger partner.

In a further experiment the test system is YdaU. Description: Fluorescence polarization assay, YdaU. Type of experiment: binding, E. coli. The conditions noted are these: 100 nM DyLight 549-labeled LfcinB; protein 0.025-0.4 µM; data not shown.
From the text: as §1, §2

In the next experiment the test system is YqiA. Description: Fluorescence polarization assay, YqiA. The conditions noted are these: 100 nM DyLight 549-labeled LfcinB; protein 0.025-0.4 µM; data not shown. Format: binding, E. coli.
From the text: as §1, §2

The next experiment deals with Ppc. Description: Fluorescence polarization assay, Ppc. Format: binding, E. coli. The conditions noted are these: 100 nM DyLight 549-labeled LfcinB; protein 0.025-0.4 µM; data not shown.
From the text: as §1, §2

The test system of a further experiment is Adi. Put plainly: Fluorescence polarization assay, Adi. Type of experiment: binding, E. coli. To be noted: 100 nM DyLight 549-labeled LfcinB; protein 0.025-0.4 µM; data not shown.
From the text: as §1, §2

Experiment [1] relates to Bovine Serum Albumin, BSA. Description: Fluorescence polarization assay, BSA negative control. Type of experiment: binding. To be noted: BSA 0.4, 0.2, 0.1, 0.05 µM (negative control); 100 nM labeled LfcinB.
From the text: as §1, §2

As to “Lactoferricin B (Biotin-FKCRRWQWRMKKLGAPSITCVRRAF; ends and bridges not checked) [LfcinB]”, in the experiment on NrdB, the “binding affinity in chip assays” value is “strong binding affinity with LfcinB”. In addition, in the experiment with HyaF (100 nM DyLight 549-labeled LfcinB, protein 0.025-0.4 µM, PBS, 0.005% BSA, 0.01% Triton X-100, room temperature, 1 h, ex 540 nm, em 590 nm, Figure 5A), the “degree of polarization vs BSA” value was “higher polarization than the negative control”. In addition, the “concentration dependence of polarization” value is reported as “increased with increasing concentrations of these 4 proteins” in the experiment on HyaF (HyaF, two-fold dilution 0.4 µM to 0.025 µM, 100 nM labeled LfcinB) and “remained constant with increasing concentrations of BSA” in experiment [1]. Besides, the “binding to YdaU” value in the experiment with YdaU is reported as “confirmed to bind to LfcinB”. Further, the “binding to YqiA” value with YqiA is on record as “confirmed to bind to LfcinB”. Besides, the “binding to Ppc” value in the experiment on Ppc was “confirmed to bind to LfcinB”. In the experiment with Adi, the “binding to Adi” value is on record as “confirmed to bind to LfcinB”.
